ChEMBL document CHEMBL3045060, “Synthesis of some urea and thiourea derivatives of naphtha[1,2-d]thiazol-2-amine as anti-Parkinsonian agents that cause neuroprotection against haloperidol-induced oxidative stress in mice” (2009)

Tests used:
Format in all cases: functional
Mus musculus [1] = assay: Neuroprotective activity in haloperidol-induced catalepsy Mus musculus Swiss albino (mouse) model assessed as mean descent time at 100 mg/kg, po administered 30 min before haloperidol challenge measured at 30 min post challenge
Mus musculus [2] = assay: Neuroprotective activity in haloperidol-induced catalepsy Mus musculus Swiss albino (mouse) model assessed as mean cumulative descent time at 100 mg/kg, po administered 30 min before haloperidol challenge (reference value: 33 +/- 1.34 min)
Mus musculus [3] = assay: Neuroprotective activity in haloperidol-induced catalepsy Mus musculus Swiss albino (mouse) model assessed as mean descent time at 100 mg/kg, po administered 30 min before haloperidol challenge measured at 180 min post challenge
Mus musculus [4] = assay: (§1) Neuroprotective activity in haloperidol-induced catalepsy Mus musculus Swiss albino (mouse) model assessed as GSH-Px activity per mg protein in brain homogenate at 100 mg/kg, po administered 30 min before haloperidol challenge measured after 4 hr post challenge by spectrophotometry (reference value: 2.129 +/- 0.06 U/mg protein)
Mus musculus [5] = assay: as §1, with “inhibition of MDA equivalent TBARS release” for “GSH-Px activity”, “1.157” for “2.129”, “nmol/mg” for “U/mg”
Mus musculus [6] = assay: Neuroprotective activity in Mus musculus Swiss albino (mouse) model assessed as reduction in haloperidol-induced catalepsy at 100 mg/kg, ip administered 30 min before haloperidol challenge measured for 30 to 180 min; design: scale not given: the % may be the effect or the level left; settings: route intraperitoneal
Mus musculus [7] = assay: Neuroprotective activity in haloperidol-induced catalepsy Mus musculus Swiss albino (mouse) model assessed as mean descent time at 100 mg/kg, po administered 30 min before haloperidol challenge measured at 150 min post challenge
Mus musculus [8] = assay: Neuroprotective activity in haloperidol-induced catalepsy Mus musculus Swiss albino (mouse) model assessed as mean descent time at 100 mg/kg, po administered 30 min before haloperidol challenge measured at 90 min post challenge
Mus musculus [9] = assay: as §1, with “GSH level” for “GSH-Px activity”, “gram of” for “mg protein in”, “tissue” for “homogenate”, “23.45” for “2.129”, “0.23 ug/g tissue)” for “0.06 U/mg protein)”
Mus musculus [10] = assay: Neuroprotective activity in haloperidol-induced catalepsy Mus musculus Swiss albino (mouse) model assessed as mean descent time at 100 mg/kg, po administered 30 min before haloperidol challenge measured at 120 min post challenge
Mus musculus [11] = assay: as §1, with “as Cu-Zn-SOD” for “as GSH-Px”, “per gram” for “per mg”, “by NBT reduction assay” for “by spectrophotometry”, “value: 1.794” for “value: 2.129”, “+/- 0.03 U/g” for “+/- 0.06 U/mg”
Mus musculus [12] = assay: Neuroprotective activity in haloperidol-induced catalepsy Mus musculus Swiss albino (mouse) model assessed as mean descent time at 100 mg/kg, po administered 30 min before haloperidol challenge measured at 60 min post challenge

SMILES	Time (Mus musculus [1]) [s]	Time (Mus musculus [2]) [min]	Time (Mus musculus [3]) [s]	Activity (Mus musculus [4]) [U/mg]	Activity (Mus musculus [5]) [nmol/mg protein]	Activity (Mus musculus [6]) [%]	Time (Mus musculus [7]) [s]	Time (Mus musculus [8]) [s]	Activity (Mus musculus [9]) [µg/g]	Time (Mus musculus [10]) [s]	Activity (Mus musculus [11]) [U/g protein]	Time (Mus musculus [12]) [s]
O=[N+]([O-])c1ccccc1NC(=S)Nc1nc2c(ccc3ccccc32)s1	20	7.43	122	1.77	3.226	72.97	109	71	12.5	88	1.398	36
O=C(CCCN1CCC(O)(c2ccc(Cl)cc2)CC1)c1ccc(F)cc1 [HALOPERIDOL]	176	26	300	1.14	–	–	300	268	6.85	300	–	217
COc1ccccc1NC(=S)Nc1nc2c(ccc3ccccc32)s1	19	6.8	95	2.1	2.045	75.46	98	65	13.1	87	1.684	44
COc1ccc(NC(=O)Nc2nc3c(ccc4ccccc43)s2)c(OC)c1	32	6.92	121	1.61	2.706	75	120	39	13.6	68	1.469	35
COc1ccccc1NC(=O)Nc1nc2c(ccc3ccccc32)s1	11	6.43	108	1.83	2.504	76.9	109	43	16.8	87	1.622	28
